Data from the NIST ThermoML archive (doi:10.1016/j.tca.2015.08.013).
Numbers after ± are expanded uncertainties.

Details: for surface tension liquid-gas: Drop volume; for mass density / kinematic viscosity / speed of sound / vapor or sublimation pressure: Liquid; for mass density: Vibrating tube method; for kinematic viscosity / speed of sound: 101.33 kPa; for kinematic viscosity: Capillary tube (Ostwald / Ubbelohde) method; for speed of sound: Sing-around technique in a fixed-path interferometer; for vapor or sublimation pressure: Ebulliometric method (Recirculating still)

Cc1ccc(C)o1 [2,5-dimethylfuran]
Details | kinematic viscosity [m2/s] | speed of sound [m/s] | surface tension liquid-gas [mN/m] | vapor or sublimation pressure [kPa]
278.15 K | 6.7e-07 ± 1.4e-08 | 1281.9 ± 1.5 | 27.5 ± 0.24 | –
280.65 K | 6.5e-07 ± 1.4e-08 | 1271.1 ± 1.5 | 27.19 ± 0.24 | –
283.15 K | 6.34e-07 ± 1.4e-08 | 1260.2 ± 1.5 | 26.86 ± 0.24 | –
283.16 K | – | – | – | 3.015 ± 0.2
285.65 K | 6.12e-07 ± 1.3e-08 | 1249.2 ± 1.5 | 26.57 ± 0.23 | –
288.15 K | 5.95e-07 ± 1.3e-08 | 1238.3 ± 1.5 | 26.22 ± 0.23 | –
288.36 K | – | – | – | 4.037 ± 0.2
290.65 K | 5.79e-07 ± 1.2e-08 | 1227.5 ± 1.5 | 25.91 ± 0.23 | 4.575 ± 0.2
293.15 K | 5.63e-07 ± 1.2e-08 | 1216.5 ± 1.5 | 25.54 ± 0.23 | –
293.16 K | – | – | – | 5.195 ± 0.2
295.65 K | 5.48e-07 ± 1.2e-08 | 1206.3 ± 1.5 | 25.3 ± 0.23 | –
298.15 K | 5.34e-07 ± 1.2e-08 | 1194.9 ± 1.5 | 25 ± 0.23 | –
298.25 K | – | – | – | 6.75 ± 0.2
300.65 K | 5.2e-07 ± 1.1e-08 | 1185 ± 1.5 | 24.67 ± 0.22 | –
302.52 K | – | – | – | 8.37 ± 0.2
303.15 K | 5.04e-07 ± 1.1e-08 | 1173.3 ± 1.5 | 24.33 ± 0.22 | –
305.65 K | 4.95e-07 ± 1.1e-08 | 1163.8 ± 1.5 | 24.02 ± 0.22 | –
308.15 K | 4.83e-07 ± 1e-08 | 1151.9 ± 1.5 | 23.7 ± 0.22 | –
309.17 K | – | – | – | 11.59 ± 0.2
310.65 K | 4.71e-07 ± 1e-08 | 1142.5 ± 1.5 | 23.34 ± 0.22 | –
313.15 K | – | – | 23.01 ± 0.21 | –

Details | mass density [kg/m3]
278.15 K, 99 kPa | 917.53 ± 0.23
280.65 K, 99 kPa | 914.899 ± 0.23
283.15 K, 99 kPa | 912.247 ± 0.23
283.15 K, 100 kPa | 912.25 ± 0.29
283.15 K, 2500 kPa | 914.37 ± 0.3
283.15 K, 5000 kPa | 916.47 ± 0.3
283.15 K, 7500 kPa | 918.52 ± 0.31
283.15 K, 10000 kPa | 920.53 ± 0.31
283.15 K, 20000 kPa | 928.2 ± 0.33
283.15 K, 30000 kPa | 935.24 ± 0.34
283.15 K, 40000 kPa | 941.89 ± 0.35
283.15 K, 50000 kPa | 948.12 ± 0.36
283.15 K, 60000 kPa | 953.98 ± 0.37
285.65 K, 99 kPa | 909.614 ± 0.23
288.15 K, 99 kPa | 906.988 ± 0.23
288.15 K, 100 kPa | 906.99 ± 0.29
288.15 K, 2500 kPa | 909.13 ± 0.3
288.15 K, 5000 kPa | 911.29 ± 0.3
288.15 K, 7500 kPa | 913.42 ± 0.31
288.15 K, 10000 kPa | 915.49 ± 0.31
288.15 K, 20000 kPa | 923.34 ± 0.33
288.15 K, 30000 kPa | 930.62 ± 0.35
288.15 K, 40000 kPa | 937.41 ± 0.36
288.15 K, 50000 kPa | 943.72 ± 0.37
288.15 K, 60000 kPa | 949.78 ± 0.37
290.65 K, 99 kPa | 904.299 ± 0.23
293.15 K, 99 kPa | 901.636 ± 0.23
293.15 K, 100 kPa | 901.64 ± 0.29
293.15 K, 2500 kPa | 903.82 ± 0.3
293.15 K, 5000 kPa | 906.07 ± 0.3
293.15 K, 7500 kPa | 908.26 ± 0.31
293.15 K, 10000 kPa | 910.4 ± 0.31
293.15 K, 20000 kPa | 918.5 ± 0.33
293.15 K, 30000 kPa | 925.97 ± 0.35
293.15 K, 40000 kPa | 932.94 ± 0.36
293.15 K, 50000 kPa | 939.57 ± 0.37
293.15 K, 60000 kPa | 945.6 ± 0.38
295.65 K, 99 kPa | 898.951 ± 0.23
298.15 K, 99 kPa | 896.285 ± 0.23
298.15 K, 100 kPa | 896.29 ± 0.29
298.15 K, 2500 kPa | 898.6 ± 0.3
298.15 K, 5000 kPa | 900.94 ± 0.3
298.15 K, 7500 kPa | 903.16 ± 0.31
298.15 K, 10000 kPa | 905.39 ± 0.32
298.15 K, 20000 kPa | 913.73 ± 0.34
298.15 K, 30000 kPa | 921.4 ± 0.35
298.15 K, 40000 kPa | 928.44 ± 0.37
298.15 K, 50000 kPa | 935.19 ± 0.38
298.15 K, 60000 kPa | 941.44 ± 0.39
300.65 K, 99 kPa | 893.569 ± 0.23
303.15 K, 99 kPa | 890.898 ± 0.23
303.15 K, 100 kPa | 890.9 ± 0.29
303.15 K, 2500 kPa | 893.25 ± 0.3
303.15 K, 5000 kPa | 895.65 ± 0.3
303.15 K, 7500 kPa | 897.97 ± 0.31
303.15 K, 10000 kPa | 900.25 ± 0.32
303.15 K, 20000 kPa | 908.83 ± 0.34
303.15 K, 30000 kPa | 916.74 ± 0.36
303.15 K, 40000 kPa | 924.06 ± 0.37
303.15 K, 50000 kPa | 930.89 ± 0.39
303.15 K, 60000 kPa | 937.27 ± 0.4
305.65 K, 99 kPa | 888.151 ± 0.23
308.15 K, 99 kPa | 885.447 ± 0.23
308.15 K, 100 kPa | 885.45 ± 0.29
308.15 K, 2500 kPa | 887.9 ± 0.3
308.15 K, 5000 kPa | 890.36 ± 0.31
308.15 K, 7500 kPa | 892.78 ± 0.31
308.15 K, 10000 kPa | 895.14 ± 0.32
308.15 K, 20000 kPa | 903.98 ± 0.34
308.15 K, 30000 kPa | 912.1 ± 0.36
308.15 K, 40000 kPa | 919.56 ± 0.38
308.15 K, 50000 kPa | 926.54 ± 0.39
308.15 K, 60000 kPa | 933.08 ± 0.4
310.65 K, 99 kPa | 882.693 ± 0.23
313.15 K, 99 kPa | 879.927 ± 0.23
